Experiments:
Format in all cases: functional
[1] = test system: Rattus norvegicus; assay: Antiinflammatory activity against carrageenan-induced paw edema rat model assessed as inhibition of hind paw swelling administered 1 hr before carrageenan challenge measured after 3 hrs by plethysmometer relative to control
[2] = organism: Mus musculus; assay: Analgesic activity in Swiss albino mouse assessed as duration of thermal-stimulus induced tail flick latency after 90 mins by tail immersion method (reference value: 3.87 +/- 0.10 seconds)
[3] = organism: Mus musculus; assay: Analgesic activity in Swiss albino mouse assessed as duration of thermal-stimulus induced tail flick latency after 60 mins by tail immersion method (reference value: 3.01 +/- 0.04 seconds)
[4] = organism: Mus musculus; assay: Analgesic activity in Swiss albino mouse assessed as duration of thermal-stimulus induced tail flick latency after 30 mins by tail immersion method (reference value: 2.13 +/- 0.03 seconds)
[5] = test system: Rattus norvegicus; assay: Antiinflammatory activity against carrageenan-induced paw edema rat model assessed as inhibition of hind paw swelling administered 1 hr before carrageenan challenge measured after 2 hrs by plethysmometer relative to control
[6] = test system: Rattus norvegicus; assay: Antiinflammatory activity against carrageenan-induced paw edema rat model assessed as inhibition of hind paw swelling administered 1 hr before carrageenan challenge measured after 1 hr by plethysmometer relative to control
[7] = test system: Rattus norvegicus; assay: Antiinflammatory activity against carrageenan-induced paw edema rat model assessed as inhibition of hind paw swelling at 10 mg/kg administered 1 hr before carrageenan challenge measured after 2 hrs by plethysmometer relative to control
[8] = test system: Rattus norvegicus; assay: Antiinflammatory activity against carrageenan-induced paw edema rat model assessed as inhibition of hind paw swelling at 10 mg/kg administered 1 hr before carrageenan challenge measured after 1 hr by plethysmometer relative to control
[9] = test system: Mus musculus; assay: Analgesic activity in Swiss albino mouse assessed as duration of thermal-stimulus induced tail flick latency at 10 mg/kg after 30 mins by tail immersion method (reference value: 2.13 +/- 0.03 seconds)
[10] = test system: Mus musculus; assay: Analgesic activity in Swiss albino mouse assessed as duration of thermal-stimulus induced tail flick latency at 10 mg/kg after 90 mins by tail immersion method (reference value: 3.87 +/- 0.10 seconds)
[11] = test system: Mus musculus; assay: Analgesic activity in Swiss albino mouse assessed as duration of thermal-stimulus induced tail flick latency at 10 mg/kg after 60 mins by tail immersion method (reference value: 3.01 +/- 0.04 seconds)
[12] = test system: Rattus norvegicus; assay: Antiinflammatory activity against carrageenan-induced paw edema rat model assessed as inhibition of hind paw swelling at 10 mg/kg administered 1 hr before carrageenan challenge measured after 3 hrs by plethysmometer relative to control

COc1cccc(/C=N/NC(=O)CN2C(=O)c3ccccc3C2=O)c1
inhibition (INH) [1]: 61.4% | Time [2]: 4.92 s | Time [3]: 3.94 s | Time [4]: 3.21 s | inhibition (INH) [5]: 49.2% | inhibition (INH) [6]: 28.5%

O=C(CN1C(=O)c2ccccc2C1=O)N/N=C/c1ccc(O)cc1
inhibition (INH) [1]: 50.6% | Time [2]: 4.12 s | Time [3]: 3.83 s | Time [4]: 3.42 s | inhibition (INH) [5]: 43.4% | inhibition (INH) [6]: 23.2%

O=C(CN1C(=O)c2ccccc2C1=O)N/N=C/c1ccccc1
inhibition (INH) [1]: 17.3% | Time [2]: 3.89 s | Time [3]: 3.22 s | Time [4]: 2.83 s | inhibition (INH) [5]: 15.9% | inhibition (INH) [6]: 14.2%

COc1cc(/C=N/NC(=O)CN2C(=O)c3ccccc3C2=O)cc(OC)c1OC
inhibition (INH) [1]: 49.4% | Time [2]: 4.21 s | Time [3]: 4.04 s | Time [4]: 3.83 s | inhibition (INH) [5]: 40.5% | inhibition (INH) [6]: 26.7%

O=C([O-])Cc1ccccc1Nc1c(Cl)cccc1Cl.[Na+] [DICLOFENAC SODIUM]
inhibition in vivo at 10 mg/kg [7]: 60.8% | inhibition in vivo at 10 mg/kg [8]: 39.8% | Time [9]: 3.06 s | Time [10]: 10.93 s | Time [11]: 5.06 s | inhibition in vivo at 10 mg/kg [12]: 68%

O=C(CN1C(=O)c2ccccc2C1=O)N/N=C/c1ccccc1[N+](=O)[O-]
inhibition (INH) [1]: 57.3% | Time [2]: 6.88 s | Time [3]: 6.29 s | Time [4]: 5.35 s | inhibition (INH) [5]: 49.2% | inhibition (INH) [6]: 30.3%

O=C(CN1C(=O)c2ccccc2C1=O)N/N=C/c1ccc(Cl)cc1
inhibition (INH) [1]: 58.6% | Time [2]: 8.91 s | Time [3]: 7.13 s | Time [4]: 5.61 s | inhibition (INH) [5]: 47.8% | inhibition (INH) [6]: 26.7%

O=C(CN1C(=O)c2ccccc2C1=O)N/N=C/c1ccc([N+](=O)[O-])cc1
inhibition (INH) [1]: 54.6% | Time [2]: 6.83 s | Time [3]: 6.45 s | Time [4]: 5.39 s | inhibition (INH) [5]: 43.4% | inhibition (INH) [6]: 19.6%

Cc1ccc(/C=N/NC(=O)CN2C(=O)c3ccccc3C2=O)cc1
inhibition (INH) [1]: 25.3% | Time [2]: 4.5 s | Time [3]: 3.86 s | Time [4]: 3.32 s | inhibition (INH) [5]: 24.6% | inhibition (INH) [6]: 17.8%

COc1cc(/C=N/NC(=O)CN2C(=O)c3ccccc3C2=O)ccc1O
inhibition (INH) [1]: 64% | Time [2]: 9.09 s | Time [3]: 6.22 s | Time [4]: 4.53 s | inhibition (INH) [5]: 53.6% | inhibition (INH) [6]: 32.1%
